Measured values published in publication PMC5078040 (Oncotarget, 2016).
pEC50: −log10 of the molar value.

Tests used:
[1] = target: T1, YSK1 (Homo sapiens, UniProt O00506); assay: KinomeScan; assay type: binding; details: 1uM
T1 construct: purchased DiscoveRx KINOMEscan

[2] = target: T2, PRKD3 (Homo sapiens, UniProt O94806); assay: KinomeScan; assay type: binding; details: 1uM
T2 construct: purchased DiscoveRx KINOMEscan

[3] = target: T3, ULK1 (Homo sapiens, UniProt O75385); assay: KinomeScan; assay type: binding; details: 1uM
T3 construct: purchased DiscoveRx KINOMEscan

[4] = target: T4, DAPK1 (Homo sapiens, UniProt P53355); assay: KinomeScan; assay type: binding; details: 1uM
T4 construct: purchased DiscoveRx KINOMEscan

[5] = target: T5, STK35 (Homo sapiens, UniProt Q8TDR2); assay: KinomeScan; assay type: binding; details: 1uM
T5 construct: purchased DiscoveRx KINOMEscan

[6] = target: T6, CSK (Homo sapiens, UniProt P41240); assay: KinomeScan; assay type: binding; details: 1uM
T6 construct: purchased DiscoveRx KINOMEscan

[7] = system: HL-60; assay: Anti-proliferative assay; assay type: cell-based; details: Homo sapiens; HL-60, AML-M2; 72 hours, CellTiter-Glo
Experimental: (§1) Cells were grown in 96-well culture plates (3000-4000/well). […] Cell proliferation was determined after treatment with compounds for 72 hours. Cell viability was measured using the CellTiter–Glo Assay Kit (Promega, USA), according to the manufacturer's instructions, and luminescence was measured in a multi-label reader (Envision, PerkinElmer, USA). Data were normalized to control groups (DMSO) and represented by the mean of three independent measurements with standard error <20%. GI50 values were calculated using Prism 5.0 (GraphPad Software, San Diego, CA).

[8] = system: SKM-1; assay: Anti-proliferative assay; assay type: cell-based; details: Homo sapiens; SKM-1, AML-M5; 72 hours, CellTiter-Glo
Experimental: as §1

[9] = system: RPMI8226; assay: Anti-proliferative assay; assay type: cell-based; details: Homo sapiens, RPMI-8226; RPMI8226, MM; 72 hours, CellTiter-Glo
Experimental: as §1

[10] = system: HT; assay: Anti-proliferative assay; assay type: cell-based; details: Homo sapiens, B-cell lymphoma, 72 hours, CellTiter-Glo
Experimental: as §1

[11] = system: OCI-AML-3; assay: Anti-proliferative assay; assay type: cell-based; details: Homo sapiens; OCI-AML-3, AML-M4; 72 hours, CellTiter-Glo
Experimental: as §1

[12] = system: MV4-11; assay: Anti-proliferative assay; assay type: cell-based; details: Homo sapiens; MV4-11, AML; 72 hours, CellTiter-Glo
Experimental: as §1

[13] = system: MOLM-14; assay: Anti-proliferative assay; assay type: cell-based; details: Homo sapiens; MOLM-14, AML-M5; 72 hours, CellTiter-Glo
Experimental: as §1

[14] = system: Hs 505T; assay: Anti-proliferative assay; assay type: cell-based; details: Homo sapiens, CLL, 72 hours, CellTiter-Glo
Experimental: as §1

[15] = system: U937; assay: Anti-proliferative assay; assay type: cell-based; details: Homo sapiens, U-937; U937, AML; 72 hours, CellTiter-Glo
Experimental: as §1

[16] = system: NOMO-1; assay: Anti-proliferative assay; assay type: cell-based; details: Homo sapiens; NOMO-1, AML-M5; 72 hours, CellTiter-Glo
Experimental: as §1

[17] = system: MEC-2; assay: Anti-proliferative assay; assay type: cell-based; details: Homo sapiens, MEC2; MEC-2, CLL; 72 hours, CellTiter-Glo
Experimental: as §1

[18] = system: PF382; assay: Anti-proliferative assay; assay type: cell-based; details: Homo sapiens, PF-382; PF382, ALL; 72 hours, CellTiter-Glo
Experimental: as §1

[19] = system: JVM-2; assay: Anti-proliferative assay; assay type: cell-based; details: Homo sapiens; JVM-2, Mantle cell lymphoma; 72 hours, CellTiter-Glo
Experimental: as §1

[20] = system: Ramos(new); assay: Anti-proliferative assay; assay type: cell-based; details: Homo sapiens, Burrkit lymphoma, 72 hours, CellTiter-Glo
Experimental: as §1

[21] = system: AMO-1; assay: Anti-proliferative assay; assay type: cell-based; details: Homo sapiens, AMO1; AMO-1, MM; 72 hours, CellTiter-Glo
Experimental: as §1

[22] = system: OCI-AML-2; assay: Anti-proliferative assay; assay type: cell-based; details: Homo sapiens, OCI-AML2; OCI-AML-2, AML-M4; 72 hours, CellTiter-Glo
Experimental: as §1

[23] = system: HEL; assay: Anti-proliferative assay; assay type: cell-based; details: Homo sapiens, AML-M6, 72 hours, CellTiter-Glo
Experimental: as §1

[24] = system: MOLM-13; assay: Anti-proliferative assay; assay type: cell-based; details: Homo sapiens; MOLM-13, AML-M5; 72 hours, CellTiter-Glo
Experimental: as §1

[25] = system: MEC-1; assay: Anti-proliferative assay; assay type: cell-based; details: Homo sapiens, MEC1; MEC-1, CLL; 72 hours, CellTiter-Glo
Experimental: as §1

[26] = system: Namalwa; assay: Anti-proliferative assay; assay type: cell-based; details: Homo sapiens, Burrkit lymphoma, 72 hours, CellTiter-Glo
Experimental: as §1

[27] = system: NALM-6; assay: Anti-proliferative assay; assay type: cell-based; details: Homo sapiens, 72 hours, CellTiter-Glo
Experimental: as §1

[28] = target: T7, RSK2(Kin.Dom.2-C-terminal) (Homo sapiens, UniProt P51812); assay: KinomeScan; assay type: binding; details: 1uM
T7 construct: RSK2(Kin.Dom.2-C-terminal); purchased DiscoveRx KINOMEscan

[29] = target: T8, ABL1-phosphorylated (Homo sapiens, UniProt P00519); assay: KinomeScan; assay type: binding; details: 1uM
T8 construct: purchased DiscoveRx KINOMEscan

[30] = target: T9, TEC (Homo sapiens, UniProt P42680); assay: KinomeScan; assay type: binding; details: 1uM
T9 construct: purchased DiscoveRx KINOMEscan

[31] = target: T10, FGFR2 (Homo sapiens, UniProt P21802); assay: KinomeScan; assay type: binding; details: 1uM
T10 construct: purchased DiscoveRx KINOMEscan

[32] = target: T11, PI3Kα (Mus musculus, UniProt P42337); assay: PI3Ks isoform in cell EC50 assay (AKT phosphorylation, Western Blotting); assay type: cell-based; details: NIH-3T3, 20ng/ml PDGF-BB, read-out: cellular EC50 PI3K Alpha
T11 construct: endogenous in cells; host or cells: NIH-3T3

[33] = target: T12, PKAC-alpha (Homo sapiens, UniProt P17612); assay: KinomeScan; assay type: binding; details: 1uM
T12 construct: purchased DiscoveRx KINOMEscan

[34] = target: T13, NEK5 (Homo sapiens, UniProt Q6P3R8); assay: KinomeScan; assay type: binding; details: 1uM
T13 construct: purchased DiscoveRx KINOMEscan

[35] = target: T14, ROS1 (Homo sapiens, UniProt P08922); assay: KinomeScan; assay type: binding; details: 1uM
T14 construct: purchased DiscoveRx KINOMEscan

[36] = target: T15, ACVRL1 (Homo sapiens, UniProt P37023); assay: KinomeScan; assay type: binding; details: 1uM
T15 construct: purchased DiscoveRx KINOMEscan
T15 sequence (P37023 22-503): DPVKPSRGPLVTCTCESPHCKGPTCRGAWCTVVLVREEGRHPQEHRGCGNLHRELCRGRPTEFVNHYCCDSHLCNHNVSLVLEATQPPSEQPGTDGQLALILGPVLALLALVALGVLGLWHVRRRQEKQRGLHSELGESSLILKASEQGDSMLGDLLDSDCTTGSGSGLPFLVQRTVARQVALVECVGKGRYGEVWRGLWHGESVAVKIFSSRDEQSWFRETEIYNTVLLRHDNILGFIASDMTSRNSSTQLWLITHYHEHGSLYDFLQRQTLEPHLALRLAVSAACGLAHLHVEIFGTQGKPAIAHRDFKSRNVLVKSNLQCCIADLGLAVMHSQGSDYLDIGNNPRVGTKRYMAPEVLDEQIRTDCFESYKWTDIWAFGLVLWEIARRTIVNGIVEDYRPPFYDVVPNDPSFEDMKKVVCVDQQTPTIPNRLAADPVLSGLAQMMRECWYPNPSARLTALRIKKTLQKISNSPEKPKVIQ

T5 sequence (Q8TDR2 whole entry): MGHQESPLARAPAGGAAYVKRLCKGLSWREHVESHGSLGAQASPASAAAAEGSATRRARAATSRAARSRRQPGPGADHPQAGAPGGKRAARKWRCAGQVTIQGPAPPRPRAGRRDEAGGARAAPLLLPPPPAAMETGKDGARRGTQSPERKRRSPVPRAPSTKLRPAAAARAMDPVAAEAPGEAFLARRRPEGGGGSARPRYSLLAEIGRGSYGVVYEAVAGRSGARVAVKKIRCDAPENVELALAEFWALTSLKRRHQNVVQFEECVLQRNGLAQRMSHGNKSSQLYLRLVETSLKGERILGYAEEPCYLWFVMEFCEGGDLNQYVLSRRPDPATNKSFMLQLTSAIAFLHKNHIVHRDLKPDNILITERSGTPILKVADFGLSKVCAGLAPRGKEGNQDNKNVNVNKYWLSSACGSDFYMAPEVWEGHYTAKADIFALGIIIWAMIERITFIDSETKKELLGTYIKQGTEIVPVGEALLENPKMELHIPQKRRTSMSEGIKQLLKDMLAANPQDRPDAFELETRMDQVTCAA
T1 sequence (O00506 whole entry): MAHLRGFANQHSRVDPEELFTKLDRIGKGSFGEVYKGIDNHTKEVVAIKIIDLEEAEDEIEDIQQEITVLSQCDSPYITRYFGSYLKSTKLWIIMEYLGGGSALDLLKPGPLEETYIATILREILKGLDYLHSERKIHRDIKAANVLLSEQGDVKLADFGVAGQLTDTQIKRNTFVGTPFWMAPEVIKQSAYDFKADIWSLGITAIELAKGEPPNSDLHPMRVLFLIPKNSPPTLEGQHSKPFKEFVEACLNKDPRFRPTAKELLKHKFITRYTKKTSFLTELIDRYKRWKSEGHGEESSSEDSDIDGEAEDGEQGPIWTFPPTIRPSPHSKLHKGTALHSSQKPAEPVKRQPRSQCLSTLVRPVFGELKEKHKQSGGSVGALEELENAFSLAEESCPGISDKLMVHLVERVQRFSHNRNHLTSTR
T8 sequence (P00519 whole entry): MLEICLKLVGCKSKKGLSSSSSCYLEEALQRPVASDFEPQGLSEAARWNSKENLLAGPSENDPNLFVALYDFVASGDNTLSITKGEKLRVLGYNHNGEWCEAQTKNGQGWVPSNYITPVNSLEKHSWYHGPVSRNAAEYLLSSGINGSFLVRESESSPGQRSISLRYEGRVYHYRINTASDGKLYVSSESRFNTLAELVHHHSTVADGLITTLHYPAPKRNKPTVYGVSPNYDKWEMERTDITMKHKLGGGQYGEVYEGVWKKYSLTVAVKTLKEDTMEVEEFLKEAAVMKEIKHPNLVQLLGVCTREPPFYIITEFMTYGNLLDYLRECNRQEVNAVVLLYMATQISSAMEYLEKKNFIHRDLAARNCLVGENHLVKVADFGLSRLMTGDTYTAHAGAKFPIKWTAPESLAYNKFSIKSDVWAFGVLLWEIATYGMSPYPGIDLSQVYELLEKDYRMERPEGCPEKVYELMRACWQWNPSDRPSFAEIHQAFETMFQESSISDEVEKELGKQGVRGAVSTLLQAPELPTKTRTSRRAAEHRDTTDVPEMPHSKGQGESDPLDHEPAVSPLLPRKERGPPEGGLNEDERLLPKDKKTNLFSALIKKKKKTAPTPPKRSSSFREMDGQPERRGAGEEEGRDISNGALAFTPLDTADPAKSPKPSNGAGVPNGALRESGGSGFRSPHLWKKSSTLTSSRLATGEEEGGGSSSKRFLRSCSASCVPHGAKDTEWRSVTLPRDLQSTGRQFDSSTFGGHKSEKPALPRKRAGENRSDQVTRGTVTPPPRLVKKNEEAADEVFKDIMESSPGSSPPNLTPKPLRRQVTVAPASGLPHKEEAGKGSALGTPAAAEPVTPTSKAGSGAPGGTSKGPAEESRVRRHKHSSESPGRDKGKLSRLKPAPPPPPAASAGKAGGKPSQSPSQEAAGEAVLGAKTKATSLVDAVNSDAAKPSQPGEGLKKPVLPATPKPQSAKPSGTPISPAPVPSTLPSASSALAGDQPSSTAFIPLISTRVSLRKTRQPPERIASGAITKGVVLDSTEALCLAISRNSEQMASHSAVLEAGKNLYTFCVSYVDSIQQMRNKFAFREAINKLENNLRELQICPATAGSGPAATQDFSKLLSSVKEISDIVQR
T11 sequence (P42337 whole entry, canonical isoform): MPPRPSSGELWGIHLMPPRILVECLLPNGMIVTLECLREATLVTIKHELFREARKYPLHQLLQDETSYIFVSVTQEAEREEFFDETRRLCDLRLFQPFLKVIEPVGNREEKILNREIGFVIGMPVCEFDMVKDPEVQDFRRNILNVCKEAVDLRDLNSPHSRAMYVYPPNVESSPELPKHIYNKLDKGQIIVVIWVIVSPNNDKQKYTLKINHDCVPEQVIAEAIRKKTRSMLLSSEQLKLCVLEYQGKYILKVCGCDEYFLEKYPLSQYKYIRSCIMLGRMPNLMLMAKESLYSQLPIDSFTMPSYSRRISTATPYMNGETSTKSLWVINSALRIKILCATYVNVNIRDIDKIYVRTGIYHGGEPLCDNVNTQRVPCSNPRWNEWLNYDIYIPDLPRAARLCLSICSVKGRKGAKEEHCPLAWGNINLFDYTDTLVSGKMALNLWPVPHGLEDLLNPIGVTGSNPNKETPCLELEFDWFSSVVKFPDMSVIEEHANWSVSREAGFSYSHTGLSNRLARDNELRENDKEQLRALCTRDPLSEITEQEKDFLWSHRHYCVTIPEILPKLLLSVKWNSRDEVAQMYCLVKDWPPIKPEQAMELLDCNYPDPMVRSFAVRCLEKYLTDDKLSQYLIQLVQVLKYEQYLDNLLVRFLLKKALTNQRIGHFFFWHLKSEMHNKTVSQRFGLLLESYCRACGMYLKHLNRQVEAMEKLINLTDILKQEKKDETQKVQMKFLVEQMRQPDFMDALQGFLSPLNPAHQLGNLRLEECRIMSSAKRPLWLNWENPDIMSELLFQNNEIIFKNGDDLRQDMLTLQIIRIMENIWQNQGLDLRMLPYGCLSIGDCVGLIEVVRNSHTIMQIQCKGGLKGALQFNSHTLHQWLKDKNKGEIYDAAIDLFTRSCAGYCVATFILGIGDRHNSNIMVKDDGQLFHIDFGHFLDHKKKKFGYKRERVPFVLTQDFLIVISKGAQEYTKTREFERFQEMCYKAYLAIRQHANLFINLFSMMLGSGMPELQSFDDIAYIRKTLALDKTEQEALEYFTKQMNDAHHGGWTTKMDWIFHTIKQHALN
T11 sequence (P26450 whole entry partner, canonical isoform): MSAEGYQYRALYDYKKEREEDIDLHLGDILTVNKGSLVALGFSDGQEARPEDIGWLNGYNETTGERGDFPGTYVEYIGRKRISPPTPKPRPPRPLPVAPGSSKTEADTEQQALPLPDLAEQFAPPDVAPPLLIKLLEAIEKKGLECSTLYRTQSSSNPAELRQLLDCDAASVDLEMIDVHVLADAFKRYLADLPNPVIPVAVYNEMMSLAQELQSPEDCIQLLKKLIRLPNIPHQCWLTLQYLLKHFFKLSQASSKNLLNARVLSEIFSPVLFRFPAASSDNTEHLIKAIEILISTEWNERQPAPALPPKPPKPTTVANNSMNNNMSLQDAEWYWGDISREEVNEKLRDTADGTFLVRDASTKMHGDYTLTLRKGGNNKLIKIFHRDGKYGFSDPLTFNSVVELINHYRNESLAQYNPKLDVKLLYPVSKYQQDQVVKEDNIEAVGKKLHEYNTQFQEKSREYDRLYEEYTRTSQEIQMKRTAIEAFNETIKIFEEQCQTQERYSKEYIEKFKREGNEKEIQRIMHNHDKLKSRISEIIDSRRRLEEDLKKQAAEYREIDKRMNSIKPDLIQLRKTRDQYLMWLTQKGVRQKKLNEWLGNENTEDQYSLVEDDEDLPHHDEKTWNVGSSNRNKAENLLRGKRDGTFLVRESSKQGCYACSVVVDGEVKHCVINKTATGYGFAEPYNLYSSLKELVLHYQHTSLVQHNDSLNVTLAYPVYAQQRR
T6 sequence (P41240 whole entry): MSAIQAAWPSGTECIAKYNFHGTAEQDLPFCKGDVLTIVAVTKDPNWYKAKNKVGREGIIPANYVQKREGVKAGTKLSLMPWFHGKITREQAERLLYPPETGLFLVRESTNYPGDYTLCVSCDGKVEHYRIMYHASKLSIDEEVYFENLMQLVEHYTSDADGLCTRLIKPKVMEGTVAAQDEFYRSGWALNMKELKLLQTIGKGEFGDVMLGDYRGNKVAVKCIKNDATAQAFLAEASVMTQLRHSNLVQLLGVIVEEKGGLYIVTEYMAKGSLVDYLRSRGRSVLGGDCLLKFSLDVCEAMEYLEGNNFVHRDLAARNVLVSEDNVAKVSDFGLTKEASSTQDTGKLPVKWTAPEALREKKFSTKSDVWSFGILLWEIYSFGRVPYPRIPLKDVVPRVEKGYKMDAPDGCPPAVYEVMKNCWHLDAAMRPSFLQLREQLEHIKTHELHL

## Cc1nc(NC(=O)[C@@H](N)C(C)C)sc1-c1cnc(Cl)c(NS(=O)(=O)c2ccccc2)c1 [PI3KD-IN-015]
[1]
  KinomeScan YSK1: 100
[2]
  KinomeScan PRKD3: 100
[3]
  KinomeScan ULK1: 74
[4]
  KinomeScan DAPK1: 98
[5]
  KinomeScan STK35: 92
[6]
  KinomeScan CSK: 90
[7]
  GI50: 2300 nM
[8]
  GI50: 2600 nM
[9]
  GI50: 2500 nM
[10]
  GI50: 860 nM
[11]
  GI50: 3100 nM
[12]
  GI50: 1900 nM
[13]
  GI50: 2200 nM
[14]
  GI50: > 10000 nM
[15]
  GI50: 5100 nM
[16]
  GI50: 1400 nM
[17]
  GI50: > 10000 nM
[18]
  GI50: 3200 nM
[19]
  GI50: > 10000 nM
[20]
  GI50: 2000 nM
[21]
  GI50: 1100 nM
[22]
  GI50: 1800 nM
[23]
  GI50: > 10000 nM
[24]
  GI50: 940 nM
[25]
  GI50: > 10000 nM
[26]
  GI50: 1400 nM
[27]
  GI50: 1800 nM
[28]
  KinomeScan RSK2(Kin.Dom.2-C-terminal): 100
[29]
  KinomeScan ABL1-phosphorylated: 85
[30]
  KinomeScan TEC: 100
[31]
  KinomeScan FGFR2: 100
[32]
  pEC50: < 5.52
[33]
  KinomeScan PKAC-alpha: 96
[34]
  KinomeScan NEK5: 100
[35]
  KinomeScan ROS1: 99
[36]
  KinomeScan ACVRL1: 100
